{
  "source": "patent US9260485B2",
  "about": "(priority 2009, dated 2016)",
  "key": {"[1]": {"system": "A549 non-small-cell lung cancer cell line", "assay": "In vitro cytotoxicity, SRB method", "type": "cell-based, Human", "details": "read-out: EC50 (concentration inhibiting cell growth in vitro by 50%); A549", "protocol": "(§1) Known cyclic hexadepsipeptides (beauvericin, enniatin H, I, and MK1688) and the compounds of Chemical Formulas 1 and 2 were evaluated for in vitro cytotoxicity against various non-multidrug-resistant human cancer cell lines and multidrug-resistant cancer cell lines using the SRB method.\n(§2) Human non-small-cell lung cancer cell line (A549) ovarian cancer cell line (SK-OV-3), skin cancer cell line (SK-MEL-2), and uterine sarcoma cell line MES-SA and its multi-drug resistant subline (MES-SA/DX5) were purchased from the American Type Culture Collection (USA). Colorectal carcinoma cancer cell line (HCT-15) was provided by the National Cancer Institute (NCI). HCT15/CL02 cell lines were established from HCT15 cells by continuous and stepwise exposure of the cells to doxorubicin in the Korea Research Institute of Chemical Technology (Korea)."}, "[2]": {"system": "HCT15 colorectal carcinoma cancer cell line", "assay": "In vitro cytotoxicity, SRB method", "type": "cell-based, Human", "details": "read-out: EC50 (concentration inhibiting cell growth in vitro by 50%); HCT15", "protocol": "as §1, §2"}, "[3]": {"system": "HCT15/CL02 cell line (doxorubicin-selected from HCT15)", "assay": "In vitro cytotoxicity, SRB method", "type": "cell-based, Human", "details": "read-out: EC50 (concentration inhibiting cell growth in vitro by 50%); HCT15/CL02", "protocol": "as §1, §2"}, "[4]": {"system": "MES-SA uterine sarcoma cell line", "assay": "In vitro cytotoxicity, SRB method", "type": "cell-based, Human", "details": "read-out: EC50 (concentration inhibiting cell growth in vitro by 50%)", "protocol": "as §1, §2"}, "[5]": {"system": "MES-SA/DX5 multi-drug resistant subline", "assay": "In vitro cytotoxicity, SRB method", "type": "cell-based, Human", "details": "read-out: EC50 (concentration inhibiting cell growth in vitro by 50%); MES-SA/DX5", "protocol": "as §1, §2"}, "[6]": {"system": "SK-MEL-2 skin cancer cell line", "assay": "In vitro cytotoxicity, SRB method", "type": "cell-based, Human", "details": "read-out: EC50 (concentration inhibiting cell growth in vitro by 50%); SK-MEL-2", "protocol": "as §1, §2"}, "[7]": {"system": "SK-OV-3 ovarian cancer cell line", "assay": "In vitro cytotoxicity, SRB method", "type": "cell-based, Human", "details": "read-out: EC50 (concentration inhibiting cell growth in vitro by 50%); SK-OV-3", "protocol": "as §1, §2"}, "[8]": {"system": "NCI human tumor cell line screen", "details": "cited from earlier work"}, "HCT-116 colon carcinoma": {"system": "HCT-116 colon carcinoma", "details": "cited from earlier work"}},
  "note": "Square brackets hold non-standard residues; d marks the D form. Peptide text beside a SMILES is read from it. Hica(2S) = CC(C)C[C@H](O)C(=O)O; NMeL = CN[C@@H](CC(C)C)C(=O)O",
  "data": [
    {"molecule": "CC[C@H](C)[C@H]1OC(=O)[C@H](C(C)C)N(C)C(=O)[C@@H](C(C)C)OC(=O)[C@H](C(C)C)N(C)C(=O)[C@@H]([C@@H](C)CC)OC(=O)[C@H](C(C)C)N(C)C1=O", "note": "[EN I, enniatin I]", "values": [
      {"measurement": "EC50", "setting": "[1]", "value": "500 ± 40", "unit": "nM"},
      {"measurement": "EC50", "setting": "[2]", "value": "5560 ± 220", "unit": "nM"},
      {"measurement": "EC50", "setting": "[3]", "value": "5880 ± 210", "unit": "nM"},
      {"measurement": "EC50", "setting": "[4]", "value": "3940 ± 30", "unit": "nM"},
      {"measurement": "EC50", "setting": "[5]", "value": "4900 ± 270", "unit": "nM"},
      {"measurement": "EC50", "setting": "[6]", "value": "530 ± 60", "unit": "nM"},
      {"measurement": "EC50", "setting": "[7]", "value": "490 ± 30", "unit": "nM"}
    ]},
    {"molecule": "CCC(C)C[C@H]1OC(=O)[C@H](C(C)C)N(C)C(=O)[C@@H](CC(C)C)OC(=O)[C@H](C(C)C)N(C)C(=O)[C@@H](C(C)C)OC(=O)[C@H](C(C)C)N(C)C1=O", "note": "(some centres unmarked) [EN MK1688, Enniatin MK1688]", "values": [
      {"measurement": "EC50", "setting": "[1]", "value": "450 ± 40", "unit": "nM"},
      {"measurement": "EC50", "setting": "[2]", "value": "14000 ± 540", "unit": "nM"},
      {"measurement": "EC50", "setting": "[3]", "value": "16400 ± 840", "unit": "nM"},
      {"measurement": "EC50", "setting": "[4]", "value": "13600 ± 1050", "unit": "nM"},
      {"measurement": "EC50", "setting": "[5]", "value": "13600 ± 790", "unit": "nM"},
      {"measurement": "EC50", "setting": "[6]", "value": "630 ± 10", "unit": "nM"},
      {"measurement": "EC50", "setting": "[7]", "value": "460 ± 30", "unit": "nM"}
    ]},
    {"molecule": "CC(C)C[C@@H]1NC(=O)[C@H](Cc2ccccc2)NC(=O)[C@H](CC(C)C)N(C)C(=O)[C@H](C(C)C)NC(=O)[C@H](CC(C)C)OC1=O", "note": "[N-Methylsansalvamide] (cyclo(FL[Hica(2S)]V[NMeL]))", "values": [
      {"measurement": "GI50", "setting": "[8]", "value": 8300, "unit": "nM"}
    ]},
    {"molecule": "CC(C)C[C@@H]1NC(=O)[C@H](C(C)C)NC(=O)[C@H](CC(C)C)OC(=O)[C@H](CC(C)C)NC(=O)[C@H](Cc2ccccc2)NC1=O", "note": "[sansalvamide] (cyclo(FL[Hica(2S)]VL))", "values": [
      {"measurement": "in vitro IC50", "setting": "HCT-116 colon carcinoma", "value": 9.8, "unit": "µg/mL"}
    ]},
    {"molecule": "beauvericin", "values": [
      {"measurement": "EC50", "setting": "[1]", "value": "1430 ± 160", "unit": "nM"},
      {"measurement": "EC50", "setting": "[2]", "value": "1530 ± 90", "unit": "nM"},
      {"measurement": "EC50", "setting": "[3]", "value": "1660 ± 80", "unit": "nM"},
      {"measurement": "EC50", "setting": "[4]", "value": "1290 ± 20", "unit": "nM"},
      {"measurement": "EC50", "setting": "[5]", "value": "1340 ± 30", "unit": "nM"},
      {"measurement": "EC50", "setting": "[6]", "value": "1470 ± 90", "unit": "nM"},
      {"measurement": "EC50", "setting": "[7]", "value": "1390 ± 90", "unit": "nM"}
    ]}
  ]
}
